For assay [1], the system named is A431 (epidermal carcinoma) cells. The assay can be described thus: Combination efficacy in A431 allogeneic mouse model (A431 cells + human PBMC, s.c.). The format is in vivo, Nod-Scid mice. The settings on record: Mab-1 10 mg/kg QW i.p., Compound 1 1.5 mg/kg QD P.O. How it is done:
Female Nod-Scid mice were pretreated with cyclophosphamide (in saline, 100 mg/kg intraperitoneal, QD×2) and disulfiram (in 0.8% Tween-80 in saline 125 mg/kg oral gavage, 2 hr after the dose of cyclophosphamide). Two days later, mice with higher body weight were subcutaneously implanted with 2.5×10^6 A431 (epidermal carcinoma) cells and 5×10^6 freshly isolated peripheral blood mononuclear cells (PBMC) on the right flank. After inoculation, mice were randomly assigned into 4 groups with 10 animals in each group according to body weight. Then mice were treated with vehicle (PEG400/0.1N HCL in saline, 40/60), Mab-1, Compound 1, and combination of Mab-1 and Compound 1, respectively. Mab-1 was given at 10 mg/kg once per week (QW) by intraperitoneal (i.p.) injection, and Compound 1 was administered at 1.5 mg/kg once per day (QD) by oral gavage (P.O.). Tumor volume was determined twice weekly in two dimensions using a caliper, and expressed in mm^3 using the formula: V=0.5(a×b^2), where a and b are the long and short diameters of the tumor, respectively.
Data are presented as mean tumor volume±standard error of the mean (SEM). Tumor growth inhibition (TGI) is calculated using the following formula:
treated t=treated tumor volume at time t;treated t0=treated tumor volume at time 0; placebo t=placebo tumor volume at time t; placebo t0=placebo tumor volume at time 0.

Assay [2] has as its system CT26WT (colon carcinoma) cells. The assay is described as follows: Combination efficacy in CT26WT syngeneic mouse model. Format: in vivo, BALB/c mice. Particulars: muCh15mt 3 mg/kg QW i.p., Compound 1 5 mg/kg QD oral gavage. How it is done:
Female BALB/c mice were s.c implanted with 2×10^5 CT26WT (colon carcinoma) cells per 150 ul PBS in the right flank. After inoculation, mice were randomized into 4 groups with 12 animals in each group. The mice were treated with vehicle (PEG400/0.1N HCL in saline, 40/60), muCh15mt, Compound 1, and the combination of muCh15mt and Compound 1, respectively. MuCh15mt was given at 3 mg/kg once per week (QW) by intraperitoneal (i.p.) injection, and Compound 1 was administered at 5 mg/kg once per day (QD) by oral gavage. Tumor volume was determined twice weekly in two dimensions using a caliper, and was expressed in mm^3 using the formula: V=0.5(a×b^2) where a and b are the long and short diameters of the tumor, respectively. Data are presented as mean tumor volume 1 standard error of the mean (SEM). Tumor growth inhibition (TGI) is calculated using the following formula:
(§1) treated t=treated tumor volume at time t treated t0=treated tumor volume at time 0 placebo t=placebo tumor volume at time t placebo t0=placebo tumor volume at time 0

Assay [3] has as its system MC38 (colon adenocarcinoma) cells. The assay is described as follows: Combination efficacy in MC38 syngeneic mouse model. Particulars: muCh15mt 3 mg/kg QW i.p., Compound 1 5 mg/kg QD P.O. The format is in vivo, BALB/C mice. The procedure: Female BALB/C mice were s.c implanted with 1×10^6 MC38 (colon adenocarcinoma) cells per 150 μl PBS in the right flank. After inoculation, mice were randomized into 4 groups with 15 animals in each group. The mice were treated with vehicle (PEG400/0.1N HCL in saline, 40/60), muCh15mt, Compound 1, and the combination treatment of much15mt and Compound 1, respectively. MuCh15mt was given at 3 mg/kg once per week (QW) by intraperitoneal (i.p.) injection, and Compound 1 was administered at 5 mg/kg once per day (QD) for 25 days by oral gavage (P.O.). Tumor volumes were determined twice weekly in two dimensions using a caliper, and were expressed in mm^3 using the formula: V=0.5(a×b^2) where a and b are the long and short diameters of the tumor, respectively.
Data are presented as mean tumor volume+standard error of the mean (SEM). Tumor growth inhihition (TGI) is calculated using the following formula:
as §1

Assay [4] concerns A20 (B cell lymphoma) cells. The assay is described as follows: Combination efficacy in A20 syngeneic mouse model. Format: in vivo, BALB/C mice. Particulars: muCh15mt 3 mg/kg QW i.p., Compound 1 5 mg/kg QD P.O. The procedure: Female BALB/C mice were s.c implanted with 1×10^5 A20 (B cell lymphoma) cells per 150 μl PBS in the right flank. After inoculation, tumor volumes were determined twice weekly in two dimensions using a caliper, and were expressed in mm^3 using the formula: V=0.5(a×b^2) where a and b are the long and short diameters of the tumor, respectively. When tumor volume reached approximately 100 mm^3, mice were randomized into 4 groups with 12 animals in each group according to tumor volume. The mice were then treated with vehicle (PEG400/0.1N HCL in saline, 40/60), muCh15mt, Compound 1, and the combination, respectively. MuCh15mt was given at 3 mg/kg once per week (QW) by intraperitoneal (i.p.) injection, and Compound 1 was administered at 5 mg/kg once per day (QD) by oral gavage (P.O.).
Data are presented as mean tumor volume ±standard error of the mean (SEM). Tumor growth inhibition (TGI) is calculated using the following formula:
as §1

Consider `COCCNCc1ccc(-c2cc3nccc(Oc4ccc(NC(=O)C5(C(=O)Nc6ccc(F)cc6)CC5)cc4F)c3s2)nc1` [Compound 1], for which, in assay [1], the “Mean Tumor Volume on Day 26 (mm^3)” value amounted to 851.5 mm^3 and the “TGI (%) on Day 26” value amounted to 37%. Further, in assay [2], the “Mean Tumor Volume on Day 28 (mm^3)” value was determined as 723.2 mm^3, the “TGI (%) on Day 28” value worked out at 71% and the “Tumor Free Animal (%) on Day 28” value is reported as 6.7%. In addition, in assay [3], the “Mean Tumor Volume on Day 25 (mm^3)” value is on record as 1089.5 mm^3, the “TGI (%) on Day 25” value is listed as 56% and the “Tumor Free Animal % on Day 25” value was 0%. In addition, in assay [4] (Day 15), the “TGI (%) on Day 15” value is 71%. In addition, in assay [4] (Day 18), the “Mean Tumor Volume on Day 18 (mm^3)” value is 735.7 mm^3 and the “Tumor Free Animal % on Day 18” value is 8.3%.

The record behind these values is patent US20220387404A1, “TREATMENT OF CANCER USING A COMBINATION COMPRISING MULTI-TYROSINE KINASE INHIBITOR AND IMMUNE CHECKPOINT INHIBITOR” (BEIGENE, LTD., priority 2019, published 2022).
